Tests used:
[1] = target: T1, KEAP1 (mutant Kelch domain) (Homo sapiens, UniProt Q14145, N382A/N414A/R380A/R415A/S602A/Y334A/Y572A); test: BLI with purified biotinylated mutant Kelch; assay type: binding
T1 construct: Kelch domain of KEAP1 (Lys312-Cys624)

KEAP1 (Kelch domain, WT) = target: T2, KEAP1 (Kelch domain, WT) (Homo sapiens, UniProt Q14145); test: BLI with purified biotinylated Kelch (also HDX-MS, CETSA in GES-1 cells, pull-down and SPR disruption of KEAP1-NRF2); assay type: binding
T2 construct: Kelch domain of KEAP1 (Lys312-Cys624)
T2 sequence (Q14145 312-624): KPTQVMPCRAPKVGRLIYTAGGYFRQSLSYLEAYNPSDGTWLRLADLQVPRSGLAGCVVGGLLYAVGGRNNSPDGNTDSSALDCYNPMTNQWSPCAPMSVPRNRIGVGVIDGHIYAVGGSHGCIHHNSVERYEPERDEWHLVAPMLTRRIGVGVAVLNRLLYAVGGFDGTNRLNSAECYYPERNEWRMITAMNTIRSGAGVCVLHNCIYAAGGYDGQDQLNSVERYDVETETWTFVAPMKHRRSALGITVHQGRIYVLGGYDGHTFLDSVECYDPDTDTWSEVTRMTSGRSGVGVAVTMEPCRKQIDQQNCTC

T1 sequence (Q14145 312-624 Y334A/R380A/N382A/N414A/R415A/Y572A/S602A): as the sequence (Q14145 312-624) above, with Y23A, R69A, N71A, N103A, R104A, Y261A, S291A counted along it

`COc1cc(CNC(=O)CCCC/C=C/C(C)C)ccc1O` [CAP, capsaicin] gave a Kd [1] of 102 µM and a Kd (KEAP1 (Kelch domain, WT)) of 31.5 µM.
